Results taken from patent US20260085070A1, “HETEROCYCLIC CBL-B INHIBITORS FOR THE TREATMENT OF CANCER” (HOTSPOT THERAPEUTICS, INC., priority 2022, published 2026).

biological target: T1, Cbl-b (Homo sapiens, UniProt Q13191); assay: Cbl-b LCK Ub TR-FRET assay; format: biochemical; conditions: Biotin-Cbl-b, His-LCK; no LCK as low control, DMSO as high control; IC50s binned A through C; read-out: CBL-B_TR-FRET_AVG_IC50
T1 construct: Biotin (biotinylated protein)
Procedure: Compounds are 3-told serially diluted in DMSO in a 384-well polypropylene plate (e.g., #P-05525-BC; Labcyte) to generate a source plate with 10 concentrations of each compound, top concentration=2 mM. 80 nL of DMSO or compounds are transferred to each well of a black 384-well ProxiPlate (e.g., #6008260; PerkinElmer) using a Labcyte Echo. 1× assay buffer (50 mM HEPES pH7.0, 100 mM NaCl, 0.01% BSA, 0.01% Triton-X100, 1 mM DTT), 2× enzyme solution (16 nM Biotin-Cbl-b or 12 nM Biotin-c-Cbl in 1× assay buffer), 2× kinase mixture (120 nM His-LCK, 1 mM ATP, 10 mM MgCl2 in assay buffer) and 2.33× detection mixture (4.66× solution 1:163 nM Anti-HA-D2 antibody (e.g., #610HADAB; PerkinElmer), 27.96 nM Streptavidin-EU (e.g., #AD0062; PerkinElmer), 1.398 mM EDTA in 1× assay buffer+4.66× solution 2: […] UBE2D2/Methylated-HA-Ubiquitin thioester adduct (e.g., BostonBiochem) in 1× assay buffer) are prepared. […] of 2× enzyme solution are added to each well containing compound, briefly centrifuged to mix, and incubated for 60 min at room temperature. […] of 2× kinase mixture is added, briefly centrifuged to mix, and incubated for 90 min. at room temperature. […] of detection mixture is added to all wells and briefly centrifuged before incubating for 20 min at room temperature. Plates are read for TR-FRET using an Envision at excitation 340 nm, emission at 615 and 665 nm, 4 flashes per well. IC50 is generated using no LCK as the low control and DMSO as the high control. Compound IC50s were binned into A through C as follows: A indicates <100 nM, B indicates 100 nM-500 nM, and C indicates >500 nM.

T1 sequence (Q13191 10-426): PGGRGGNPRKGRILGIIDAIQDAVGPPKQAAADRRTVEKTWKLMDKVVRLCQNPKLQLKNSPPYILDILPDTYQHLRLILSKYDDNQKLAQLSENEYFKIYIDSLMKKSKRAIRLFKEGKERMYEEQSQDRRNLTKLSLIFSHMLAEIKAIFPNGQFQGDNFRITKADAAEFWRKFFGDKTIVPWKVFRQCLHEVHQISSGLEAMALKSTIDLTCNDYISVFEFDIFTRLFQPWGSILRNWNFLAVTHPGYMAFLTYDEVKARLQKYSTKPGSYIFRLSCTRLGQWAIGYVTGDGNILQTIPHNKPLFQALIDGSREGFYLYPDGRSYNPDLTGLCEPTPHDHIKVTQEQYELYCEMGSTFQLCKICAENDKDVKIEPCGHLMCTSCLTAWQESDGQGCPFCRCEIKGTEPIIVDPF

IC50	SMILES
< 100 nM	Cn1cnnc1-c1cc(F)ccc1-c1cccc(-n2cc3c(C(F)(F)F)cc(CNCC4(O)CCC4)cn3c2=O)c1 [Compound 1]
> 500 nM	C[C@H]1CCCN(Cc2cc(C(F)(F)F)c3cn(-c4cc(-c5ccc(F)cc5-c5nncn5C)cc(C5CC5)n4)c(=O)n3c2)C1 [Compound 2]
> 500 nM	C[C@H]1CCCN(Cc2cc(C(F)(F)F)c3cn(-c4cc(-c5ccc(F)cc5-c5nncn5C)cc(Cl)n4)c(=O)n3c2)C1 [Compound 3]
> 500 nM	C[C@H]1CCCN(Cc2cc(C(F)(F)F)c3cn(-c4cc(-c5ccc(F)cc5-c5nncn5C)cc(Br)n4)c(=O)n3c2)C1 [Compound 4]
